These results are taken from PMC5629014, “Assessment of sesquiterpene lactones isolated from Mikania plants species for their potential efficacy against Trypanosoma cruzi and Leishmania sp” (PLoS Neglected Tropical Diseases, 2017).

Values after ≈ are worked out from the molar mass of the structure shown. “Also recorded” adds a separate entry of the source. Where two headings read alike, the source gives them in different places.

Data set [1] relates to T. cruzi amastigotes. Put plainly: Inhibition of intracellular amastigotes, β-galactosidase transfected parasites in Raw 264.7 cells (CPRG). The data set is classed as cell-based. The conditions noted are these: Trypanosoma cruzi. On the procedure: (§1) Trypanosoma cruzi epimastigotes (RA strain) were grown in a biphasic medium. Cultures were routinely maintained by weekly passages at 28°C. T. cruzi bloodstream trypomastigotes (RA strain) and the recombinant Tulahuen strain expressing β-galactosidase (Tul-β-Gal) were obtained from infected CF1 mice by cardiac puncture at the peak of parasitemia on day 15 post-infection. Trypomastigotes were routinely maintained by infecting 21-day-old CF1 mice.
The effect of each compound on intracellular forms of T. cruzi was assayed using β-galactosidase transfected parasites. Briefly, 96-well plates were seeded with Raw 264.7 cells at 5x10^3 per well in […] of culture medium and incubated for 24 h at 37 °C in a 5% CO2 atmosphere. Cells were washed and infected with transfected blood trypomastigotes expressing β-galactosidase at a parasite/cell ratio of 10:1. After 12 h of co- culture, plates were washed twice with PBS to remove unbound parasites and each pure compound was added at different concentrations (0.001–50 μg/mL) in 150 μL of fresh complete RPMI medium without phenol red (Gibco, Rockville, MD). Controls included infected untreated cells (100% infection control) and uninfected cells (0% infection control). The assay was developed 5 days later by the addition of chlorophenol red-β-D-galactopyranoside (CPRG) (100 mM) and 1% Nonidet P40. Plates were then incubated for 4–6 h at 37 °C and the absorbance was measured at 595 nm in a microplate reader (Bio-Rad Laboratories, Hercules, CA). The percentage inhibition was calculated as 100–{[(absorbance of treated infected cells)/(absorbance of untreated infected cells) x 100} and the IC50 value was estimated. Benznidazole was used as positive control.

Data set [2] relates to T. cruzi bloodstream trypomastigotes. Put plainly: Trypanocidal effect on bloodstream trypomastigotes, live parasite count in Neubauer chamber. It is filed as cell-based. The conditions noted are these: Trypanosoma cruzi; 24 h, remaining live parasites counted. As to the method: as §1
The trypanocidal effect of the purified compounds was also tested on bloodstream trypomastigotes. Briefly, mouse blood containing trypomastigotes was diluted in complete RPMI -1640 Medium (Sigma-Aldrich R6504- Batch 029K83102) with 10% (vol/vol) fetal calf serum (FCS) (Internegocios) to adjust the parasite concentration to 3 × 10^5/mL. Parasites were seeded in duplicate in a 96-well microplate in the presence of each compound (0–50 μg/mL) or controls and incubated at 4 °C for 24 h. The number of remaining living parasites in each sample was determined in 5 μL of cell suspension diluted 1/5 in lysis buffer (0.75% NH4Cl, 0.2% Tris, pH 7.2) and counted in a Neubauer chamber. Benznidazole was used as positive control.

A short description of data set [3]: Host cell toxicity, trypan blue exclusion method. It is filed as cell-based, human. The conditions noted are these: human. On the procedure:
(§2) The human monocyte leukemia THP1 (ATCC TIB202) cell line were obtained from the vendor. Cells were thawed, expanded and settled at a concentration 5x10^5 in a final volume of 150 μL in a flat-bottom 96-well microplate and cultured at 37°C in a 5% CO2 atmosphere in the absence or presence of increasing concentrations of the pure compounds. After 24 h, the cell viability was determined by the trypan blue exclusion method in the absence and presence of increasing concentrations of the compounds [26]. The 50% cytotoxic concentration (CC50) and the selectivity index (SI = CC50/IC50) were determined for each compound for T. cruzi trypomastigotes and amastigotes.

The test system of data set [4] is T. cruzi epimastigotes (RA strain). The data set is described as follows: T. cruzi epimastigotes growth inhibition, [3H] thymidine uptake assay. The conditions noted are these: for IC50: Trypanosoma cruzi, read-out: IC50 on T. cruzi epimastigotes. It is filed as cell-based, Trypanosoma cruzi. On the procedure: as §1
The evaluation of T. cruzi epimastigotes growth inhibition was performed by the [^3H] thymidine uptake assay. Briefly, exponentially growing epimastigotes were adjusted to a cell density of 1.5 × 10^6 parasites/mL in fresh medium. Parasites were allowed to grow for 72 h at 28°C in medium with or without different concentrations of each compound (0–5 μg/mL) in triplicate. Percent of inhibition was calculated as {100 − [(cpm of treated parasites/ cpm of untreated parasites) × 100]}. The compound concentration at which the parasite growth was inhibited by 50% (IC50) was determined after 72 h. Benznidazole was used as positive control.

For data set [5], the system named is Leishmania braziliensis promastigotes (MHOM/BR/75/M2903 strain). Put plainly: Growth inhibition of Leishmania braziliensis promastigotes, MTT method. The conditions noted are these: 72 h, read-out: IC50 on L. braziliensis promastigotes. It is filed as cell-based. On the procedure: Leishmania braziliensis promastigotes (MHOM/BR/75/M2903 strain) were grown in liver infusion tryptose medium LIT, which was prepared as follows: 5 g/L liver infusion (Sigma 2023-072K1066), 5 g/L tryptose (Britania), 2 g/L glucose (Sigma), 68 mM NaCl, 5.4 mM KCl, 22 mM HPO4Na2, supplemented with 20 mg/L hemin (Sigma) and 10% (vol/vol) fetal calf serum (FCS) (Internegocios). Culture maintenance was performed by weekly passages at 26°C.
The growth inhibition of Leishmania braziliensis promastigotes was evaluated by the MTT method. Parasites (5x10^6) were settled at a final volume of 150 μL in a flat-bottom 96-well microplate and cultured at 37°C in a 5% CO2 atmosphere in the absence or presence of increasing concentrations of the pure compounds. After 72 h, 3-(4,5- dimethylthiazol-2-yl)-2,5-diphenyltetrazolium bromide (MTT) was added at a final concentration of 1.5 mg/mL. Plates were incubated for 2 h at 37°C. The purple formazan crystals formed were completely dissolved by adding 150 μL of ethanol and the absorbance was read at 595 nm in a microplate reader. The inhibition percentage was calculated as {100 − [(DO595nm of treated parasites/ DO595nm of untreated parasites) × 100]}. Compounds were tested at 0–50 μg/mL. Amphotericin B was used as positive control.
(Tetrazolium dyes change colour on reduction, which living cells bring about.)

Data set [6] relates to human monocyte leukemia THP1 cells. Put plainly: Host cell toxicity, trypan blue exclusion method. The data set is classed as cell-based. The conditions noted are these: 24 h. As to the method: as §2
The test system of data set [7] is T. cruzi (RA strain). Put plainly: Animal model of T. cruzi infection (acute, lethal dose). It is filed as in vivo, Balb/c mice. On the procedure: Inbred male Balb/c mice were nursed at the Departamento de Microbiología, Facultad de Medicina, Universidad de Buenos Aires. Groups of six Balb/c male mice (6 to 8 weeks old) were infected with 1000 bloodstream T. cruzi trypomastigotes by the intraperitoneal route. Five days after infection, the presence of circulating parasites was confirmed by the microhematocrit method (Sülsen et al., 2013). Mice were treated daily with compound 3 or benznidazole (1 mg/kg of body weight/day) for five consecutive days (days 4 to 8 post-infection) by the intraperitoneal route. Drugs were resuspended in DMSO and then adjust to concentration in 0.1 M phosphate buffered saline (PBS, pH 7.2); this vehicle was also employed as a negative control. Levels of parasitemia were monitored every 2 days in 5 μL of blood diluted 1:5 in lysis buffer (0.75% NH4Cl, 0.2% Tris, pH 7.2) by counting parasites in a Neubauer chamber. The number of animal deaths was recorded daily.
The weight of each animal was evaluated during the acute phase of infection. Results were expressed as the ratio between the weight on each day and the weight registered the day of the infection multiplied by 100.
Parasitemia and weight loss were analyzed using a non parametric test: Mann-Whitney test. The survival curves were analyzed with a log rank test.

In data set [8] the test system is TNF-α. Put plainly: Cytokine production by macrophages, TNF-α sandwich ELISA. It is filed as cell-based. As to conditions: RAW 264.7 macrophages, 25 μg/mL, 24 h, p<0.01. On the procedure:
RAW 264.7 (ATCC TIB71) macrophage cell line were obtained from ATCC and cultured (1×10^5) in duplicate in 24-well plates in the presence of 2.5 or 25 μg/mL of Compound 3, LPS (10 μg/mL) plus INF-γ (0.30 μg/mL) (positive control), or medium alone (negative control). After 24 h, supernatants were collected and stored at -80 °C until cytokine analysis. IL-12 and TNF-α levels were determined by sandwich ELISA (BD Pharmingen, and R&D System, Minneapolis, MN, respectively) according to manufacturer’s instructions. Supplied standards were used to generate a standard curve.
On the technique in general: ELISA stands for enzyme-linked immunosorbent assay.

Data set [9] has as its system IL-12. Put plainly: Cytokine production by macrophages, IL-12 sandwich ELISA. The conditions noted are these: RAW 264.7 macrophages, 24 h. The data set is classed as cell-based. On the procedure:
[…] After 24 h, supernatants were collected and stored at -80 °C until cytokine analysis. IL-12 and TNF-α levels were determined by sandwich ELISA (BD Pharmingen, and R&D System, Minneapolis, MN, respectively) according to manufacturer’s instructions. Supplied standards were used to generate a standard curve.

[10] abbreviates: RAW264.7, β-galactosidase expressing T. cruzi in mammalian cells, read-out: IC50 on T. cruzi amastigotes.
Where [11] appears, read: THP1 (ATCC TIB202) monocyte leukemia cells.
The mark [12] stands for this setting: 72 h, 28°C, [3H] thymidine uptake.
Setting [13] is: infected Balb/c mice, 1 mg/kg/day i.p., days 4 to 8 post-infection.

With `C=C1C(=O)OC2CC3(C)OC3C3OC3C3=CC(OC3=O)C12` (centres unmarked) [mikanolide], the IC50 in [1] (RAW264.7, read-out: IC50 on T. cruzi amastigotes) worked out at 4.5 µg/mL (≈ 15.5 µM); in [2], 2.1 µg/mL (≈ 7.23 µM); in [4], 0.7 µg/mL (≈ 2.41 µM); in data set [5] it was 5.1 µg/mL (≈ 17.6 µM). Further, half-maximal cytotoxicity in data set [3] (THP1 cells) (CC50 at 24 h) was put at 22.3 µg/mL (≈ 76.8 µM).
As to `C[C@H]1C(=O)O[C@H]2C[C@]3(C)O[C@H]3[C@@H]3O[C@@H]3C3=C[C@@H](OC3=O)[C@@H]21` [dihydromikanolide], the IC50 was determined as 8.5 µg/mL (≈ 29.1 µM) in [1] (setting [10]), 0.3 µg/mL (≈ 1.03 µM) in [2], 2.5 µg/mL (≈ 8.55 µM) in data set [4] (setting [12]) and 57.1 µg/mL (≈ 195 µM) in [5] (MTT). The compound further came in with a CC50 in data set [6] of 13.0 µg/mL (≈ 44.5 µM). This compound came in with a CC50 at 24 h in data set [3] (setting [11]) of 13 µg/mL (≈ 44.4 µM).
As for `C[C@@H]1[C@H](O)[C@@H](C)/C=C/C=C/C=C/C=C/C=C/C=C/C=C/[C@H](O[C@@H]2O[C@H](C)[C@@H](O)[C@H](N)[C@@H]2O)C[C@@H]2O[C@](O)(C[C@@H](O)C[C@@H](O)[C@H](O)CC[C@@H](O)C[C@@H](O)CC(=O)O[C@H]1C)C[C@H](O)[C@H]2C(=O)O` [amphotericin B, reference compound], the IC50 in data set [5] (MTT) was 0.26 µg/mL (≈ 0.281 µM).
As for `C=C1C(=O)OC2CC3(C)OC3CC(OC(C)=O)C3=CC(OC3=O)C12` (centres unmarked) [scandenolide], the IC50 stood at 60.6 µg/mL (≈ 181 µM) in [1] (setting [10]), 68.4 µg/mL (≈ 205 µM) in data set [2], 137 µg/mL (≈ 410 µM) in data set [4] (setting [12]) and 252 µg/mL (≈ 754 µM) in data set [5] (MTT). This compound also showed a CC50 at 24 h in data set [3] (setting [11]) of 864 µg/mL (≈ 2580 µM). In addition, the “activity on Trypanosoma cruzi” value in data set [4] (in words, all T. cruzi stages (abstract)) is “not active”.
In the case of `O=C(Cn1ccnc1[N+](=O)[O-])NCc1ccccc1` [benznidazole, reference compound], the IC50 was 1.1 µg/mL (≈ 4.23 µM) in [1] (setting [10]), 10.4 µg/mL (≈ 40 µM) in data set [2] and 1.7 µg/mL (≈ 6.53 µM) in data set [4] (setting [12]). For the same compound, in [7] (setting [13]), the “reduction of area under the parasitemia curve with respect to controls” value is recorded as 2.3 fold.
Take `C=C1C(=O)OC2CC3(C)OC3CCC3=CC(OC3=O)C12` (centres unmarked) [deoxymikanolide]: the IC50 in data set [1] (setting [10]) amounted to 6.3 µg/mL (≈ 22.8 µM); in data set [2] it was 1.5 µg/mL (≈ 5.43 µM); in [4] (setting [12]), 0.08 µg/mL (≈ 0.29 µM); in data set [5] (MTT), 11.5 µg/mL (≈ 41.6 µM). Besides, the “secretion of TNF-α compared with negative control” value in data set [8] was “significant increase”. Besides, the CC50 in data set [6] came to 79.4 µg/mL (≈ 287 µM). This compound also returned a CC50 at 24 h in data set [3] (setting [11]) of 79.4 µg/mL (≈ 287 µM). Besides, in data set [7] (20 days post infection, p = 0.028), the “weight loss during the acute phase of infection compared to control mice” value was “able to reduce the weight loss”. Moreover, the “reduction of area under the parasitemia curve with respect to controls” value in data set [7] (setting [13]) turned out to be 1.5 fold. In addition, the “blood parasitemia compared to controls” value in [7] (infected Balb/c mice, 1 mg/kg/day i.p., days 4 to 8 post-infection, 1 mg/kg/day) was “decrease the parasitemia; also recorded: lower blood parasitemia”. For the same compound, in data set [7] (lethal T. cruzi infection, controls 100% mortality by day 22, p = 0.02 Log-rank), the “mice surviving the acute phase of infection” value came out at 70%. For the same compound, the IL-12 production result is “slight increase” in data set [9] (2 μg/mL) and “higher production rate” in [9] (25 μg/mL).

The IC50 is the concentration that gives 50% inhibition. Broadly, the CC50 is the concentration at which the toxic effect on the cells reaches its halfway point. A lower CC50 goes with harm at low concentration.
